Where a SMILES comes first, the peptide text is derived from it. The star is where a group is joined. Cbz = O=C(OCc1ccccc1)*; OtBu = CC(C)(C)O*
Tested on: BMP-1
Assay: BMP-1 gene expression (qPCR, normalized over 18S) in human dermal fibroblasts
Type: cell-based
Experimental: An examination of gene expression of BMP-1 was conducted using a number of proteasome inhibitors including, proteasome inhibitor-1, curcumin, MG-132 and bortezomib. Human neonatal dermal fibroblasts (AllCells, Catalog No. HN006001) were maintained in Dulbecco's modified Eagle's medium (DMEM) supplemented with 10% fetal bovine serum. Early passage cells were plated at 2×10^4 cells/cm^2 and grown in humidified 5% CO2 at 37° C. for 24 hours. Spent media was replaced the following day with assay media including Proteasome inhibitor-1 was added in DMEM at 1 μM and 0.1 μM. Untreated cells were used as the control group. For the human osteogenesis PCR array, the experimental group was treated only at 1 μM. In addition, in separate trials, spent media was replace by assay media of curcumin added in DMEM at 10 μM and 100 μM, MG-132 in DMEM at 0.1 μM and 1 μM, and bortezomib in DMEM at 0.1 μm and 1 μM.
Phenol-chloroform extraction was performed to isolate the total RNA for real time polymerase chain reaction array. More specifically, the total RNA was prepared using TRI REAGENT (Ambion, product number 9738), wherein the total RNA was obtained from the human neonatal dermal fibroblasts. Note that isolation was performed as per the instructions provided with the TRI REAGENT. The RNA was used for subsequent quantitative polymerase chain reaction (qPRC) gene expression of BMP1 measured using hydrolysis probes (TAQMAN probes available from Applied Biosystems) as described further below.
Concentration and integrity of the obtained total RNA was assessed by absorbance in a spectrophotometer at 260 nm and 280 nm and by electrophoresis in 1% agarose with formaldehyde loading dye. For TAQMAN gene expression assays, cDNA was synthesized from 2 μg of total RNA using the High Capacity cDNA Reverse Transcription Kit (Applied Biosystems, product number 4368814), again following the protocol supplied with the kit. The resulting cDNA was diluted 1:10.
For TAQMAN gene expression, gene-specific fluorescent labeled TAQMAN primers for FAM-BMP1 (Applied Biosystems, product Hs0098677.g1) and TAQMAN reference VIC-18S ribosomal RNA (Applied Biosystems, product number 4310893E) were used to target the gene of interest. A cocktail of universal master mix (Applied Biosystems, product number 4369016) was prepared individually for both set of primers which contained Taq Polymerase, dNTPs, and buffer. Template cDNA's were added separately to respective individual wells in triplicate samples. PCR was performed on StepOne Plus Real Time System instrument (Applied Biosystems). The amplification program consisted of 1 cycle of 95° C. with 10 minute hold (hot start) followed by 50 cycles of 95° C. with 15 second annealing hold and 1 minute 60° C. specified acquisition hold.
For human osteogenisis PCR array, total RNA was prepared using silica matrix purification using RNEASY MINI KIT (Qiagen, product number 74101) according to the manufacturer's recommendations. cDNA was synthesized from 1 μg of purified DNA-free RNA accordingly to RT^2First Strand Kit (SABiosciences, C-03). The resulting cDNA was diluted 1:30 and amplified. The procedure for the PCR array using real-time PCR is based on the RT^2 Profiler PCR array system instructions for Human Osteogenesis (SABiosciences, product number PAHS-026C). A cocktail reaction mix was setup as recommended by the PCR manufacturer (SABiosceiences, product number PA-012). PCR was performed using the same temperature parameters as used with the StepOne Plus Real Time System instrument. The Ct value of endogenous reference gene (i.e. 18s) was used to control for input RNA and then used to normalize target gene (i.e. BMP-1) tested from the same cDNA sample (Δ Ct), and then calibrated to an internal reference sample (ΔΔCt). Change in gene expression was determined by the expression 2̂-(ΔΔCt). […]

[1] = 0.1 μM inhibitor, FIG. 27, nontreated approximately 1.52 (MG132) / 1.50 (bortezomib), may not be statistically significant
[2] = 1 μM inhibitor, FIG. 27, nontreated approximately 1.52 (MG132) / 1.50 (bortezomib), may not be statistically significant

| Compound | BMP-1/18S mRNA levels [1] [a.u.] | BMP-1/18S mRNA levels [2] [a.u.] | also measured |
| --- | --- | --- | --- |
| CC(C)C[C@@H](C=O)NC(=O)[C@H](CC(C)C)NC(=O)[C@H](CC(C)C)NC(=O)OCc1ccccc1 [MG132] (Cbz-Leu-Leu-Leu-aldehyde) | 1.10 | 1.09 | – |
| CC[C@H](C)[C@H](NC(=O)OCc1ccccc1)C(=O)N[C@@H](CCC(=O)OC(C)(C)C)C(=O)N[C@@H](C)C(=O)N[C@H](C=O)CC(C)C [PS-1, Z-Ile-Glu(OBu^t)-Ala-Leu-H] (Cbz-IE(OtBu)AL-aldehyde) | – | – | BMP-1/18S mRNA levels (0.1 μM PS-1, FIG. 25, nontreated approximately 1.26): 0.436 a.u.; BMP-1/18S mRNA levels (1.0 μM PS-1, FIG. 25, nontreated approximately 1.26): 0.480 a.u. |
| CC(C)C[C@H](NC(=O)[C@H](Cc1ccccc1)NC(=O)c1cnccn1)B(O)O [bortezomib] | 1.27 | 1.27 | – |
| COc1cc(/C=C/C(=O)CC(=O)/C=C/c2ccc(O)c(OC)c2)ccc1O [curcumin] | – | – | BMP-1/18S mRNA levels (10 μM curcumin, FIG. 26, nontreated approximately 1.26): 1.68 a.u.; BMP-1/18S mRNA levels (100 μM curcumin, FIG. 26, nontreated approximately 1.26): 0.882 a.u. |

Reference: patent US20110009332A1, “Therapeutic Treatment Of Wounds” (SOUTHWEST RESEARCH INSTITUTE, priority 2009, published 2011)
